Legend:
5-lipoxygenase (5-LO) = target: T1, 5-lipoxygenase (5-LO) (Homo sapiens, UniProt P09917); test: 5-LO inhibiting activity in human polymorphonuclear leukocytes ([14C]-arachidonic acid, A23187; HPLC of eicosanoids); format: cell-based; conditions: for concentration of biosynthesis products versus concentration of the drug: LTB4, 6-trans-LTB4, 5-HETE, 20-OH-LTB4, FIGS. 3 and 4; for IC50: human polymorphonuclear leukocytes, AA 10 μM, A23187 5 μM, average of five different peaks, read-out: IC50 (concentration of the drug which inhibits 50% of the AA converted by 5-LO); for inhibition at 25 µM: 25 μM concentration, read-out: 5-LO inhibitory activity, approximate inhibition percentage; for 5-LO inhibiting activity of products of monoiodination of phenol (control tests): in words
T1 construct: endogenous in cells; host or cells: human polymorphonuclear leukocytes from donor blood
T1 sequence (P09917 1-674): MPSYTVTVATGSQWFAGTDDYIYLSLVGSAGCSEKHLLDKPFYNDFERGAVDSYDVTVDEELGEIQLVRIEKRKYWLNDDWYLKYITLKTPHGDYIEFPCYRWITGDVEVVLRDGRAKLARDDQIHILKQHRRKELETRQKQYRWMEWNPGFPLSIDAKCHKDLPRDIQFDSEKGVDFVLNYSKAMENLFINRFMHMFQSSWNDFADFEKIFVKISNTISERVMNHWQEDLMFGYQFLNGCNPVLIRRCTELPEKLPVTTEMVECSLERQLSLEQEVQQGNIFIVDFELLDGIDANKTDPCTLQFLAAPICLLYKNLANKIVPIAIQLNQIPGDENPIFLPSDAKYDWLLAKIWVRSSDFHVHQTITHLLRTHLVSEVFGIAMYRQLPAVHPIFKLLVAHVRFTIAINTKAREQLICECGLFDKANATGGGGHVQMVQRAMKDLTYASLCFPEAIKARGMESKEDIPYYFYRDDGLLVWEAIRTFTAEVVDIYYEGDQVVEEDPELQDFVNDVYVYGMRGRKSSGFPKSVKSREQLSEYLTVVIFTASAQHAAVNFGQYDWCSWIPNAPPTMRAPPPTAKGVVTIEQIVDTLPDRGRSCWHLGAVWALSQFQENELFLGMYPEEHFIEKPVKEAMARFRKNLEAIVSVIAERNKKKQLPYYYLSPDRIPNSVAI
Experimental: In order to show the 5-LO inhibiting activity of the products of the present invention, a specific test based on human polymorphonuclear leukocytes is chosen.
5-LO Inhibiting Activity in Polymorphonuclear Leukocytes
Blood was obtained from donors which had not received medication during the ten days previous to the extraction. The blood was treated with an anticoagulant (ACD-A) and was centrifuged at 200 g during 12 min at room temperature, separating the supernatant. A solution of Dextran T-500 in physiological serum was added to the pellet, in order to obtain a final concentration of 0.6% w/v, and was allowed to sediment during 40 min. The supernatant was centrifuged at 180 g during 10 min at room temperature. The pellet was resuspended in 5 ml of Hank's buffer, pH 7.4. After the addition of 3 ml of Lymphoprep, the suspension was centrifuged at 450 g during 30 min, and the layers of supernatant were discarded. The next step was the lysis of the erythrocytes present by adding 2 ml of a saline solution. The resulting volume was adjusted to 10 ml with Hank's buffer, pH 7.4. The solution was centrifuged during 10 min at 180 g; the supernatant was discarded and the resulting pellet was resuspended in 1-2 ml of Hank's buffer, pH 7.4. The cellular density was determined using a haemocytometer using the procedure of microcollection Unopette to determine the levels of platelet contamination. Cellular density was adjusted to 2×10^7 cells/ml with Hank's buffer, pH 7.4 and CaCl2 was added to a final concentration of 1.5 mM.
Aliquots (0.5 ml) of the polymorphonuclear leukocytes suspensions, obtained as described in part (a), were incubated during 5 min at 37° C. in the absence (control) and in the presence of three different concentrations of each drug. Afterwards an ethanol solution of [^14 C]-arachidonic acid and A23187 ionophore was added to obtain a final concentration of 10 and 5 μM, respectively. After 5 min of incubation the reaction was stopped by addition of 0.5 ml of ice-cold ethanol. Samples were centrifuged during 2 min at 1500 g, and the supernatants were kept at -80° C. until analyzed. Controls were carried out using the polymorphonuclear leukocyte suspensions aliquots in the presence of the solvent (DMSO) only.
The analysis of the products from the transformation of arachidonic acid through the action of the lipoxygenase (these products being the eicosanoids) was carried out using high pressure liquid chromatography (HPLC), in a reverse phase column (Ultrasphere-ODS, Beckman), injecting 500 μl of the supernatants obtained from the incubations. Elution was carried out using an isocratic mix of mathanol:water:triethylamine:trifluoroacetic acid, 75:25:0.05:0.10, with a flux of 1 ml/min. Detection was carried out with a radioactivity detector with a liquid scintillation cell on-line coupled with the column.

[1] = background statement; cited from earlier work
5-LO = conditions: background statement; cited from earlier work
dioxygenases = conditions: background statement; cited from earlier work

Row | Structure (SMILES) | inhibition at 25 µM (5-lipoxygenase (5-LO)) | also measured
1 | CC(=O)N1CCN(c2ccc(OCC3COC(Cn4ccnc4)(c4ccc(Cl)cc4Cl)O3)cc2)CC1 (centres unmarked) [ketaconozale, ketoconazole, reference compound] | – | concentration of biosynthesis products versus concentration of the drug (5-lipoxygenase (5-LO)): decreased in approximately linear with the concentration of the drug used; IC50 (5-lipoxygenase (5-LO)): 102 µM
2 | Oc1c(I)cc(I)cc1C(F)(F)F [Bobel-12, 2-trifluoromethyl-4,6-diiodophenol] | 97% | –
3 | CCc1cc(I)cc(I)c1O [Bobel-7, 2-ethyl-4,6-diiodophenol] | 74% | –
4 | CC(C(=O)O)c1ccc2oc(-c3ccc(Cl)cc3)nc2c1 (centres unmarked) [benoxaprofen, reference compound] | – | concentration of biosynthesis products versus concentration of the drug (5-lipoxygenase (5-LO)): decreased in approximately linear with the concentration of the drug used; IC50 (5-lipoxygenase (5-LO)): 92 µM; toxicity [1]: much too toxic
5 | Oc1c(I)cc(I)c(F)c1I [Bobel-29, 3-fluoro-2,4,6-triiodophenol] | 100% | –
6 | CC(C)c1cc(I)c(O)c(I)c1 [Bobel-14, 4-isopropyl-2,6-diiodophenol] | 85% | –
7 | Oc1ccccc1I [Bobel 2-iodophenol, 2-iodophenol, reference compound] | – | 5-LO inhibiting activity of products of monoiodination of phenol (control tests) (5-lipoxygenase (5-LO)): negligible activity
8 | Oc1c(I)cc(Cl)cc1I [Bobel-18, 4-chloro-2,6-diiodophenol] | 80% | –
9 | CCc1c(I)cc(I)c(O)c1I [Bobel-26, 3-ethyl-2,4,6-triiodophenol] | 94% | –
10 | Oc1c(I)cc(C(F)(F)F)cc1I [Bobel-20, 4-trifluoromethyl-2,6-diiodophenol] | 100% | –
11 | Oc1cccc(I)c1 [Bobel 3-iodophenol, 3-iodophenol, reference compound] | – | 5-LO inhibiting activity of products of monoiodination of phenol (control tests) (5-lipoxygenase (5-LO)): negligible activity
12 | Oc1c(Br)cc(I)cc1I [Bobel-11, 2-bromo-4,6-diiodophenol] | 88% | –
13 | CC(C)c1cc(I)cc(I)c1O [Bobel-8, 2-isopropyl-4,6-diiodophenol] | 95% | –
14 | Oc1c(I)cc(I)c(Cl)c1I [Bobel-30, 3-chloro-2,4,6-triiodophenol] | 90% | –
15 | CC(C)c1cc(I)cc(C(C)C)c1O [Bobel-4, 2,6-diisopropyl-4-iodophenol] | 94% | –
16 | CC(C)(C)c1cc(I)ccc1O [Bobel-3, 2-tert-butyl-4-iodophenol] | 96% | –
17 | Oc1ccc(I)cc1 [Bobel 4-iodophenol, 4-iodophenol, reference compound] | – | 5-LO inhibiting activity of products of monoiodination of phenol (control tests) (5-lipoxygenase (5-LO)): negligible activity
18 | COc1c(OC)c(OC(C)=O)c2cc(Cl)ccc2c1OC(C)=O [lonapalene] | – | toxicity [1]: much too toxic
19 | CC(C)(C)c1cc(I)cc(I)c1O [Bobel-9, 2-tert-butyl-4,6-diiodofenol] | 87% | –
20 | CC(C)(C)c1cc(I)c(O)c(I)c1 [Bobel-15, 4-tert-butyl-2,6-diiodophenol] | 85% | –
21 | Oc1c(I)cc(-c2ccccc2)cc1I [Bobel-16, 4-phenyl-2,6-diiodophenol] | 97% | –
22 | Oc1c(Cl)cc(I)cc1I [Bobel-10, 2-chloro-4,6-diiodophenol] | 73% | –
23 | CC(Cc1ccc(O)c(O)c1)C(C)Cc1ccc(O)c(O)c1 (centres unmarked) [NDGA, nordihydroguayaretic acid] | – | 5-LO inhibition (5-LO): potent 5-LO inhibitor; inhibition of dioxygenases (dioxygenases): inhibitor of all dioxygenases
24 | CC(C)(C)c1ccc(O)c(I)c1 [Bobel-2, 4-tert-butyl-2-iodophenol] | 80% | –
25 | Cc1c(I)cc(I)c(O)c1I [Bobel-25, 3-methyl-2,4-6-triiodophenol] | 97% | –
